What follows are compounds tested against T1, Type-1 angiotensin II receptor (Homo sapiens, UniProt P30556) (assay: Ability to displace [125I]AII binding to COS cells transfected with a cDNA encoding human Angiotensin II receptor, type 1).
T1 sequence (P30556 whole entry): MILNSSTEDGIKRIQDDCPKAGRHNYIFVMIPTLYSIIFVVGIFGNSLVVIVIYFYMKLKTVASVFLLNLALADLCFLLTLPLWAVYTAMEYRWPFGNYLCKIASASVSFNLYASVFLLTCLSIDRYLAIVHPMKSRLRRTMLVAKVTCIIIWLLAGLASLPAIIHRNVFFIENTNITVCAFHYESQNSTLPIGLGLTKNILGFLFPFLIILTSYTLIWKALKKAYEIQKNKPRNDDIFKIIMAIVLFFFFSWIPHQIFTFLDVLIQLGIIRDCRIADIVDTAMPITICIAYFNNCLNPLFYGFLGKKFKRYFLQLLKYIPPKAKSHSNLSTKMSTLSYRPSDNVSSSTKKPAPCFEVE
Format: cell-based
With `CCCCc1nc(Cl)c(C=O)n1Cc1ccc2c(-c3nnn[nH]3)cc3ccccc3c(=O)c2c1` the Ki was 12 nM. Compound `CCCCc1nc(Cl)c(C(=O)O)n1Cc1ccc2c(-c3nnn[nH]3)cc3ccccc3c(=O)c2c1` has a Ki of 2.1 nM. `Cc1cc(OCc2ccc3c(-c4nnn[nH]4)cc4ccccc4c(=O)c3c2)c2c(n1)CCCC2` was tested, and the Ki was 4.3 nM. `CCc1cc(OCc2ccc3c(-c4nnn[nH]4)cc4ccccc4c(=O)c3c2)c2c(n1)CCCC2` showed a Ki of 1.3 nM. `CCOc1nc2cccc(C(=O)O)c2n1Cc1ccc2c(-c3nnn[nH]3)cc3ccccc3c(=O)c2c1` gave a Ki of 2.7 nM. `CCCCC(=O)N(Cc1ccc2c(c1)Oc1ccccc1C=C2c1nnn[nH]1)[C@H](C(=O)O)C(C)C` showed a Ki of 9.6 nM. `CCOC(=O)c1c(OCc2ccc3c(-c4nnn[nH]4)cc4ccccc4c(=O)c3c2)cc(C)nc1C` showed a Ki of 4.3 nM. In the case of `CCc1cc(OCc2ccc3c(-c4nnn[nH]4)cc4ccccc4c(=O)c3c2)c2ccccc2n1`, the Ki is reported as 0.65 nM. For `CCc1cc(OCc2ccc3c(-c4nnn[nH]4)cc4ccccc4c(=O)c3c2)c2cc(C(=O)O)ccc2n1`, the Ki was 2.7 nM. For `CCCc1nc2c(C)cc(C)nc2n1Cc1ccc2c(c1)Oc1ccccc1C=C2c1nnn[nH]1`, the Ki was 0.7 nM. In the case of `CCc1nc2c(C)cc(C)nc2n1Cc1ccc2c(-c3nnn[nH]3)cc3ccccc3c(=O)c2c1`, the Ki is reported as 0.66 nM. Work on `CCc1cc(NCc2ccc3c(-c4nnn[nH]4)cc4ccccc4c(=O)c3c2)n2nccc2n1` yielded a Ki of 1.1 nM. Compound `CCCCC(=O)N(Cc1ccc2c(-c3nnn[nH]3)cc3ccccc3c(=O)c2c1)[C@H](C(=O)O)C(C)C` has a Ki of 8.7 nM. In the case of `CCOc1nc2cccc(C(=O)O)c2n1Cc1ccc2c(c1)Oc1ccccc1C=C2c1nnn[nH]1`, the Ki is reported as 3.9 nM. `CCCc1nc2c(C)cc(C)nc2n1Cc1ccc2c(-c3nnn[nH]3)cc3ccccc3c(=O)c2c1` showed a Ki of 0.29 nM. Compound `CCCc1nc2c(C)cc(C)nc2n1Cc1ccc2c(c1)Cc1ccccc1C=C2c1nnn[nH]1` has a Ki of 0.49 nM. For `Cc1cc(C)c2nc(C3CC3)n(Cc3ccc4c(-c5nnn[nH]5)cc5ccccc5c(=O)c4c3)c2n1`, the Ki was 0.45 nM. `CCOC(=O)c1c(NCc2ccc3c(-c4nnn[nH]4)cc4ccccc4c(=O)c3c2)cc(C)nc1C` was tested, and the Ki was 2.9 nM. In the case of `CCc1cc(OCc2ccc3c(-c4nnn[nH]4)cc4ccccc4c(=O)c3c2)c2nc(OC)ccc2n1`, the Ki is reported as 0.48 nM.

Reference: ChEMBL document CHEMBL1128470, “Novel angiotensin II receptor antagonists. Design, synthesis, and in vitro evaluation of dibenzo[a,d]cycloheptene and dibenzo[b,f]oxepin derivatives. Searching for bioisosteres of biphenylyltetrazole using a three-dimensional search technique” (J Med Chem, 1995)
